One data set addresses T1, TRPM8 (Rattus norvegicus, UniProt Q8R455).
T1 construct: expressed in transfected cells
As to the kind of experiment: Ca2+ microfluorography (Fluo-4 NW), menthol-induced Ca2+ signal in HEK-CR1-TRPM8 cells. Particulars: for % Block TRPM8 50 µM: 50 µM compound; for % Block TRPM8 50 µM / IC50: agonist 100 µM menthol, HEK-CR1-TRPM8 cells. In kind it is cell-based. The procedure:
(§1) All compounds were tested at two different concentrations (50 and 5 µM) on TRPM8 and TRPV1 channels stably expressed in HEK and SH-SY5Y cell lines, respectively. The agonist induced intracellular Ca^2+ signals were measured using a fluorescent Ca^2+ indicator, in the absence and in the presence of test compounds. […] The obtained results were compared to those of 68 (AMTB, TRPM8 antagonist) and ruthenium red (TRPV1 antagonist). The IC50 values for the assay on TRPM8 were also calculated.
(§2) For fluorescence assays, cells expressing TRP channels (SH-SY5Y-TRPV1 and HEKCR1-TRPM8) were seeded in 96-well plates (Corning Incorporated, Corning, NY) at a cell density of 40,000 cells 2 days before treatment. The day of treatment the medium was replaced with 100 µL of the dye loading solution Fluo-4 NW supplemented with probenecid 2.5 mM. Then the compounds dissolved in DMSO were added at the desired concentrations and the plate(s) were incubated at 37 °C in a humidified atmosphere of 5% CO2 for 60 minutes.
(§3) The fluorescence was measured using instrument settings appropriate for excitation at 485 nm and emission at 535 nm (POLARstar Omega BMG LABtech). […] The corresponding antagonist
(§4) (10 µM Ruthenium Red forTRPV1 and 10 µM 68 for TRPM8) was added for the blockade. The changes in fluorescence intensity were recorded during 15 cycles more. […] The blocking percentage was calculated as follow (Eq. 1):1 %TRPBlockedResponse=(1−Fo−Fi/FCo−FCi)∗100 where Fo is the fluorescence after the addition of menthol in the presence of the compound, Fi is the fluorescence before the addition of menthol in the presence of the compound, FCo is the fluorescence after the addition of menthol in the absence of the compound, FCi is the fluorescence before the addition of menthol in the absence of the compound. To guarantee that our results were useful we only used assays with a Z-factor higher than 0.5.
(§5) The statistical Z-factor to determine the quality of the HTS experiment as was calculated using the equation 2:2 Z‐factor=1−3∗(SDmax+SDmin)/Meanmax−Meanmin where: Meanmax is the mean of the maximum fluorescence in the presence of agonist, SDmax is the standard deviation of the maximum fluorescence in the presence of agonists, Meanmin is the mean of the maximum fluorescence in the presence of agonist and antagonist and SDmin is the standard deviation of the maximum fluorescence in the presence of agonist and antagonist.

For a further data set, the target named is TRPV1 (Rattus norvegicus, UniProt O35433). As to the kind of experiment: Ca2+ microfluorography (Fluo-4 NW), capsaicin-induced Ca2+ signal in SH-SY5Y-TRPV1 cells. The class given is cell-based. Particulars: for % Block TRPV1 50 µM: 50 µM compound, agonist 10 µM capsaicin, SH-SY5Y-TRPV1 cells. The procedure:
as §1, §2, §3, §4, §5

The next data set in a line: Kinetic solubility. The class given is physicochemical.

Where “and” joins values, the source holds several entries; their conditions need not be identical. Equal values may be shown once.

T1 sequence (Q8R455 whole entry): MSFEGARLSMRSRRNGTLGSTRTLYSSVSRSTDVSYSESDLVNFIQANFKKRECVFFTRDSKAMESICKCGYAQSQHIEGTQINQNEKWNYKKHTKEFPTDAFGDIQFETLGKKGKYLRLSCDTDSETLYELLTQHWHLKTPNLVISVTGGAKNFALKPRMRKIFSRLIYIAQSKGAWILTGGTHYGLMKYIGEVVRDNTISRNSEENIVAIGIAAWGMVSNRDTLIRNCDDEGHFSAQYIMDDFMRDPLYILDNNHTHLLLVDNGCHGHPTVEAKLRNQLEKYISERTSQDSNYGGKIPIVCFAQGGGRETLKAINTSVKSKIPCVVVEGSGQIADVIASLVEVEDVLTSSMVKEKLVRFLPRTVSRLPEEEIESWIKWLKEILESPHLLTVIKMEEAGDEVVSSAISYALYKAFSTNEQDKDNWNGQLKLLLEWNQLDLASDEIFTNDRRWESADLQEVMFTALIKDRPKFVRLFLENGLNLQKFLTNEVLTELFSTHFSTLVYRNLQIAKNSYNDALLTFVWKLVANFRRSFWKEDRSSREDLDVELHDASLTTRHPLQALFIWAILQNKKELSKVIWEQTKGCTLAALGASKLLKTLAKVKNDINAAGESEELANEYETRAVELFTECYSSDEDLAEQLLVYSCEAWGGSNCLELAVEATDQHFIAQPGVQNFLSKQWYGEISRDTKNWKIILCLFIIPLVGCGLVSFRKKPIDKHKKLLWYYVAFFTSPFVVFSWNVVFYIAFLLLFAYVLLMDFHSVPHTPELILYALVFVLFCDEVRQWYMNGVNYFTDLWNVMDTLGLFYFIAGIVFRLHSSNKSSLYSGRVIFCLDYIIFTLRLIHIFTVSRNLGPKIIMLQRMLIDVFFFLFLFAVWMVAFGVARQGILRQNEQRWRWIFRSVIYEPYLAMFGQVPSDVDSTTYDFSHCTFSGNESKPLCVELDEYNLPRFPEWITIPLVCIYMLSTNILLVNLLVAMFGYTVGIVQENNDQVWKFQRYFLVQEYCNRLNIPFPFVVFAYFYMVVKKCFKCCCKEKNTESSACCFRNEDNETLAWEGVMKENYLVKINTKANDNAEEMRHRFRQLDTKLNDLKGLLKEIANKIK
Sequence of TRPV1 (O35433 whole entry): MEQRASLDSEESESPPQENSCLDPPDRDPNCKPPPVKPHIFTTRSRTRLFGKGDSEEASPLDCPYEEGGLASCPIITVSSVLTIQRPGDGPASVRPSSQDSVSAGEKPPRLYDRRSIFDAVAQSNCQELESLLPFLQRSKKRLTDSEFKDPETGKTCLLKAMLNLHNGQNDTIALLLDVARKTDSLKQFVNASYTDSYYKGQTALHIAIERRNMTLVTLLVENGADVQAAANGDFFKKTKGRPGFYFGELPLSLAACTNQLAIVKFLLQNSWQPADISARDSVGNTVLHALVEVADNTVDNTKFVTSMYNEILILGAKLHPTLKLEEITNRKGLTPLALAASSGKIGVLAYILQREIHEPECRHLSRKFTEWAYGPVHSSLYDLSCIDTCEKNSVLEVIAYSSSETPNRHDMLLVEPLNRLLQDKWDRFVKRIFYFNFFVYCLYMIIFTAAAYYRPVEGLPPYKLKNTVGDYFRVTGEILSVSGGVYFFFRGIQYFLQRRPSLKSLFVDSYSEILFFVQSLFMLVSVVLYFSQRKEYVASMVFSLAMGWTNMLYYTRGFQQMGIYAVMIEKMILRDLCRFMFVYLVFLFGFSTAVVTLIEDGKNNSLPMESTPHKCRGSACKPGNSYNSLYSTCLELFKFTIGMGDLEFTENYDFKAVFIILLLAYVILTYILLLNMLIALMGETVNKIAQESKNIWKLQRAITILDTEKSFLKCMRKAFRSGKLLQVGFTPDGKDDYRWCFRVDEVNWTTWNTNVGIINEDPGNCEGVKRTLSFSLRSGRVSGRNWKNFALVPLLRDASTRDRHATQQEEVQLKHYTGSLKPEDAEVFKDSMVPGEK

Regarding `COC(=O)C(CCN1C(=O)CC1(Cc1ccccc1)C(=O)OC)NC(=O)OC(C)(C)C` (stereo not drawn) [Compound 39], on TRPM8, the “% Block TRPM8 50 µM” value worked out at 49.2 ± 15.3% and the IC50 is 50.2 ± 1.3 µM.

Turning to `COC(=O)C1(Cc2ccccc2)CC(=O)N1CCC(NC(=O)OC(C)(C)C)C(=O)OCc1ccccc1` (stereo not drawn) [Compound 40], at TRPV1, the “% Block TRPV1 50 µM” value is recorded as 42.4 ± 5.3%. In addition, at TRPM8, the “% Block TRPM8 50 µM” value turned out to be 75% and the IC50 is 6.8 ± 1.02 µM.

On to `COC(=O)C1(Cc2ccccc2)CC(=O)N1CCC(NC(=O)OCc1ccccc1)C(=O)OC(C)(C)C` (stereo not drawn) [Compound 42], for which the “% Block TRPV1 50 µM” value at TRPV1 is recorded as 51.7 ± 15.4%. Further, at TRPM8, the “% Block TRPM8 50 µM” value is 82% and 82.2 ± 29.0%; the IC50 was 6.2 ± 1.6 µM.

On to `COC(=O)C1(C)CC(=O)N1CC[C@H](NC(=O)OC(C)(C)C)C(=O)OCc1ccccc1` (stereo partly drawn) [Compound 43], for which, on TRPM8, the “% Block TRPM8 50 µM” value was 80.5 ± 15.8% and the IC50 is 36.8 ± 3.1 µM.

With `COC(=O)C1(C)CC(=O)N1CCC(NC(=O)OCc1ccccc1)C(=O)OC(C)(C)C` (stereo not drawn) [Compound 44], at TRPV1, the “% Block TRPV1 50 µM” value is listed as 26.8 ± 4.8%. At TRPM8, the “% Block TRPM8 50 µM” value worked out at 21.3 ± 9.8% and the IC50 was found to be 339.8 ± 1.4 µM.

As for `CC(C)(C)OC(=O)NC(CCCN1C(=O)CC1(Cc1ccccc1)C(=O)OCc1ccccc1)C(=O)OCc1ccccc1` (stereo not drawn) [Compound 46], the “% Block TRPV1 50 µM” value on TRPV1 was 59.4 ± 10.5%. For the same compound, on TRPM8, the “% Block TRPM8 50 µM” value was found to be 86.5±19.6% and the IC50 was determined as 1.7 ± 2.7 µM. At TRPM8 (longer N-alkyl chain, 46 versus 41), the “reduction of TRPM8 blockade activity compared with homologue 41” value is “up to 4 fold”.

Consider `COC(=O)C(CCCN1C(=O)CC1(Cc1ccccc1)C(=O)OC(C)(C)C)NC(=O)OCc1ccccc1` (stereo not drawn) [Compound 47], for which, at TRPV1, the “% Block TRPV1 50 µM” value was determined as 49.8 ± 7.2%. For the same compound, the “% Block TRPM8 50 µM” value on TRPM8 was 94.9 ± 19.7%.

On to `CC(C)(C)OC(=O)NC(CCN1C(=O)CC1(Cc1ccccc1)C(=O)O)C(=O)O` (stereo not drawn) [Compound 51], for which, at TRPV1, the “% Block TRPV1 50 µM” value worked out at 15.9 ± 4.3%. Moreover, on TRPM8, the “% Block TRPM8 50 µM” value came out at 41.7 ± 8.7% and the IC50 was 74.1 ± 3.6 µM.

As to `CC(C)(C)OC(=O)NC(CCCN1C(=O)CC1(Cc1ccccc1)C(=O)O)C(=O)O` (stereo not drawn) [Compound 53], the “% Block TRPV1 50 µM” value on TRPV1 was 20.6 ± 9.2%. Further, on TRPM8, the “% Block TRPM8 50 µM” value was found to be 40.9 ± 10.3% and the IC50 worked out at 68.4 ± 8.5 µM.

For the compound `COC(=O)[C@H](C)NC(=O)[C@H](CCN1C(=O)C[C@@]1(Cc1ccccc1)C(=O)N[C@@H](C)C(=O)OC)NC(=O)OC(C)(C)C` [Compound 57b], on TRPM8, the “% Block TRPM8 50 µM” value came to 44.0 ± 16.5% and the IC50 stood at 70.4 ± 1.6 µM.

For the compound `COC(=O)[C@H](C)NC(=O)C1(Cc2ccccc2)CC(=O)N1CCC[C@H](NC(=O)OCc1ccccc1)C(=O)OC` (stereo partly drawn) [Compound 58], the “% Block TRPV1 50 µM” value on TRPV1 amounted to 18.3 ± 16.2%. At TRPM8, the “% Block TRPM8 50 µM” value is 50.7 ± 9.5% and the IC50 is 48.4 ± 18.6 µM.

`COC(=O)[C@H](CCCN1C(=O)CC1(Cc1ccccc1)C(=O)N[C@H](C)C(=O)OC)NC(=O)OCc1ccccc1` (stereo partly drawn) [Compound 59]: at TRPV1, the “% Block TRPV1 50 µM” value is 19.4 ± 5.1%. Besides, at TRPM8, the “% Block TRPM8 50 µM” value is reported as 36.2 ± 22.3% and the IC50 turned out to be 81.2 ± 4.8 µM.

As to `COC(=O)C(C)NC(=O)C1(Cc2ccccc2)CC(=O)N1CCCC(C(=O)OC)N(C)C(=O)OCc1ccccc1` (stereo not drawn) [Compound 60], on TRPM8, the “% Block TRPM8 50 µM” value stood at 71.3 ± 18.8% and the IC50 turned out to be 32.6 ± 1.8 µM.

For the compound `CNC(CCCN1C(=O)CC1(Cc1ccccc1)C(=O)NC(C)C(=O)OC)C(=O)OC` (stereo not drawn) [Compound 61], on TRPM8, the “% Block TRPM8 50 µM” value amounted to 78.3 ± 25.0% and the IC50 came to 27 ± 1.7 µM.

For `CC(C)(C)OC(=O)N[C@@H](CCN1C(=O)C[C@]1(Cc1ccccc1)C(=O)NCc1ccccc1)C(=O)NCc1ccccc1` [Compound 62a], the “% Block TRPV1 50 µM” value on TRPV1 was 42.5 ± 16.2%. In “Kinetic solubility” (1% DMSO), the Kinetic solubility was 63 µM and 38 mg/L. For the same compound, the Kinetic solubility in “Kinetic solubility” (5% DMSO) was 92 µM and 55 mg/L. Further, on TRPM8, the “% Block TRPM8 50 µM” value stood at 70.0 ± 18.6% and the IC50 was 7.1 ± 0.3 µM.

In the case of `CC(C)(C)OC(=O)NC(CCCN1C(=O)CC1(Cc1ccccc1)C(=O)NCc1ccccc1)C(=O)NCc1ccccc1` (stereo not drawn) [Compound 64], at TRPV1, the “% Block TRPV1 50 µM” value is given as 26.9 ± 9.2%. At TRPM8, the “% Block TRPM8 50 µM” value came out at 70.4 ± 15.2% and the IC50 was 11.5 ± 2.7 µM.

Regarding `CC(C)(C)OC(=O)NC(CCN1C(=O)CC1(Cc1ccccc1)C(=O)Nc1cccnc1)C(=O)Nc1cccnc1` (stereo not drawn) [Compound 66], at TRPV1, the “% Block TRPV1 50 µM” value worked out at 22.8 ± 3.7%. The Kinetic solubility in the data set “Kinetic solubility” (1% DMSO) is greater than 100 µM; in “Kinetic solubility” (5% DMSO) it was greater than 500 µM. In addition, in “Kinetic solubility” (ratio to compound 41), the “improved solubility respect to 41” value is greater than 50 fold. The “improved solubility respect to 62” value in the data set “Kinetic solubility” (ratio to compound 62) is greater than 5 fold. Also, the “% Block TRPM8 50 µM” value at TRPM8 was 64.6 ± 13.2%. For the same compound, at TRPM8, the IC50 was 5.7 ± 3.4 µM.

`CC(C)(C)OC(=O)N[C@@H](CCN1C(=O)C[C@]1(Cc1ccccc1)C(=O)Nc1ccncc1)C(=O)Nc1ccncc1` [Compound 67a]: on TRPV1, the “% Block TRPV1 50 µM” value was determined as 36.3 ± 10.8%. Further, at TRPM8, the “% Block TRPM8 50 µM” value amounted to 43.5 ± 9.8% and the 50% inhibitory concentration (IC50) worked out at 38.1 ± 6.3 µM.

In the case of `CC(C)(C)OC(=O)N[C@@H](CCN1C(=O)C[C@@]1(Cc1ccccc1)C(=O)Nc1ccncc1)C(=O)Nc1ccncc1` [Compound 67b], at TRPV1, the “% Block TRPV1 50 µM” value was found to be 31.7 ± 4.5%. Further, at TRPM8, the “% Block TRPM8 50 µM” value was 52.3 ± 7.6% and the IC50 came out at 7.26 ± 1.9 µM.

As for `Cc1cccc(COc2ccccc2C(=O)N(CCCN)Cc2cccs2)c1` [Compound 68, reference compound], at TRPM8, the “% Block TRPM8 50 µM” value worked out at 100% and the IC50 was 7 ± 1 µM.

Consider `N.N.N.N.N.N.N.N.N.N.N.N.N.N.[Cl-].[Cl-].[Cl-].[Cl-].[Cl-].[Cl-].[O-2].[O-2].[Ru+3].[Ru+3].[Ru+4]` [Ruthenium red, reference compound], for which the “% Block TRPV1 50 µM” value at TRPV1 was found to be 100%. Also, the IC50 at TRPV1 (printed in the TRPM8 IC50 column, footnote a: evaluated in TRPV1) was determined as 0.015 µM.

Take `CC1CCC(C(C)C)C(O)C1` (stereo not drawn) [menthol, reference compound]: the EC50 at TRPM8 (agonist, in our assay) is 137 µM.

For the origin of these results see article PMC5589751, “Synthesis, high-throughput screening and pharmacological characterization of β–lactam derivatives as TRPM8 antagonists” (Scientific Reports, 2017).
